This is an account of results in US6878722B2, “Substituted cycloalkyl P1′ hepatitis C virus inhibitors” (Bristol-Myers Squibb Company, priority 2002, dated 2005).

Type in all cases: biochemical
The target of test [1] is T1, HCV NS3/4A protease complex (BMS strain, genotype 1a) (Hepatitis C virus genotype 1a, UniProt P27958, C1454S).
T1 construct: DNA encoding the recombinant HCV NS3/4A protease complex (amino acids 1027 to 1711) for these strains; inferred from the pET21b vector and Ni-NTA purification; made in house; host or cells: Escherichia coli BL21 (DE3), pET21b
As to the kind of experiment: Recombinant HCV NS3/4A protease complex FRET peptide assay, BMS strain. In short, it runs like this:
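Recombinant NS3/4A complex (aa 1027–1711) with C-terminal three-lysine tail, C1711G and C1454S, expressed in E. coli BL21(DE3) and purified by Ni-NTA then Superdex-S200. Inhibition of the complex from each strain measured in vitro by FRET peptide cleavage.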

Test [2] deals with T2, HCV NS3/4A protease complex (J4L6S strain, 1b genotype) (Hepatitis C virus genotype 1b, UniProt O92972, C1454S/C1711G).
T2 construct: DNA encoding the recombinant HCV NS3/4A protease complex (amino acids 1027 to 1711) for these strains; inferred from the pET21b vector and Ni-NTA purification; made in house; host or cells: Escherichia coli BL21 (DE3), pET21b
As to the kind of experiment: Recombinant HCV NS3/4A protease complex FRET peptide assay, J4L6S strain. The text has this: (§1) The purpose of this in vitro assay was to measure the inhibition of HCV NS3 protease complexes, derived from the BMS, H77C or J416S strains, as described below, by compounds of the present invention.
(§2) Serum from an HCV-infected patient was obtained from Dr. T. Wright, San Francisco Hospital. An engineered full-length cDNA (compliment deoxyribonucleic acid) template of the HCV genome (BMS strain) was constructed from DNA fragments obtained by reverse transcription-PCR (RT-PCR) of serum RNA (ribonucleic acid) and using primers selected on the basis of homology between other genotype 1a strains. […] The infectious clones, H77C (1a genotype) and J4L6S (1b genotype) were obtained from R. Purcell (NIH) and the sequences are published in Genbank (AAB67036, see Yanagi,M., Purcell,R. H., Emerson,S. U. and Bukh,J. Proc. Natl. Acad. Sci. U.S.A. 94(16),8738-8743 (1997); AF054247, see Yanagi,M., St Claire,M., Shapiro,M., Emerson,S. U., Purcell,R. H. and Bukh,J, Virology 244 (1), 161-172. (1998)).
(§3) The BMS, H77C and J4L6S strains were used for production of recombinant NS3/4A protease complexes. DNA encoding the recombinant HCV NS3/4A protease complex (amino acids 1027 to 1711) for these strains were manipulated as described by P. Gallinari et al. (see Gallinari P, Paolini C, Brennan D, Nardi C, Steinkuhler C, De Francesco R. Biochemistry. 38(17):5620-32, (1999)). […]

Test [3] has as its target T3, HCV NS3/4A protease complex (H77C strain, 1a genotype) (Hepatitis C virus genotype 1a, UniProt P27958, C1454S).
T3 construct: DNA encoding the recombinant HCV NS3/4A protease complex (amino acids 1027 to 1711) for these strains; inferred from the pET21b vector and Ni-NTA purification; made in house; host or cells: Escherichia coli BL21 (DE3), pET21b
As to the kind of experiment: Recombinant HCV NS3/4A protease complex FRET peptide assay, H77C strain.
Excerpt: as §1, §2, §3

The subject of test [4] is human pancreatic chymotrypsin. As to the kind of experiment: Specificity assay, chymotrypsin. The settings on record: 2 hr pre-incubation. On the procedure:
The specificities of compounds of the present invention were determined against a variety of serine proteases: human sputum elastase (HS), porcine pancreatic elastase (PPE) and human pancreatic chymotrypsin and one cysteine protease: human liver cathepsin B. In all cases a 96-well plate format protocol using colorimetric p-nitroaniline (pNA) substrate specific for each enzyme was used as described previously (Patent WO 00/09543) with some modifications to the serine protease assays. All enzymes were purchased from Sigma while the substrates were from Bachem.
Each assay included a 2 hr enzyme-inhibitor pre-incubation at room temperature followed by addition of substrate and hydrolysis to ˜30% conversion as measured on a Spectramax Pro microplate reader. Compound concentrations varied from 100 to 0.4 μM depending on their potency. […]
The percentage of inhibition was calculated using the formula: [1−((UVinh−UVblank)/(UVctl−UVblank))]×100 […]

T1 sequence (P27958 1658-1714, looked up, stated change not applied): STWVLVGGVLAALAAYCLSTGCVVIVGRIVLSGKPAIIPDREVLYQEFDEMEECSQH
T1 sequence (P27958 1027-1657, looked up, stated change not applied): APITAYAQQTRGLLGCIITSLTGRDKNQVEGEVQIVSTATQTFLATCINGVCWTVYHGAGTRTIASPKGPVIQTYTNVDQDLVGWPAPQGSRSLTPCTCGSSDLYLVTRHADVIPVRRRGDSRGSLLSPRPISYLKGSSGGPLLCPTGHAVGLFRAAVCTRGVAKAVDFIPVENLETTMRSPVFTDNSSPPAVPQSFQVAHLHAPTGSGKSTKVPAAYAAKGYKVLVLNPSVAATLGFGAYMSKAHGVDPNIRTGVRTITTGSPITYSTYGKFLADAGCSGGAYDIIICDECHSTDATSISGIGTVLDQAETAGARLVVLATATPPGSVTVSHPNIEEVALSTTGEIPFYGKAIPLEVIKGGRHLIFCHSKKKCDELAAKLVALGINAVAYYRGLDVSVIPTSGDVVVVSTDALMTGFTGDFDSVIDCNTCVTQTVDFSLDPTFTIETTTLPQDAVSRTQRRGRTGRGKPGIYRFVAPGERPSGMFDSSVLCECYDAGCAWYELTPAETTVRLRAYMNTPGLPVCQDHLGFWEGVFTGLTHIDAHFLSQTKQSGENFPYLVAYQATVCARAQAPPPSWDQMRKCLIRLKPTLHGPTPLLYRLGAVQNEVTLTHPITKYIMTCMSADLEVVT
T2 sequence (O92972 1027-1711 C1454S/C1711G, one chain of several): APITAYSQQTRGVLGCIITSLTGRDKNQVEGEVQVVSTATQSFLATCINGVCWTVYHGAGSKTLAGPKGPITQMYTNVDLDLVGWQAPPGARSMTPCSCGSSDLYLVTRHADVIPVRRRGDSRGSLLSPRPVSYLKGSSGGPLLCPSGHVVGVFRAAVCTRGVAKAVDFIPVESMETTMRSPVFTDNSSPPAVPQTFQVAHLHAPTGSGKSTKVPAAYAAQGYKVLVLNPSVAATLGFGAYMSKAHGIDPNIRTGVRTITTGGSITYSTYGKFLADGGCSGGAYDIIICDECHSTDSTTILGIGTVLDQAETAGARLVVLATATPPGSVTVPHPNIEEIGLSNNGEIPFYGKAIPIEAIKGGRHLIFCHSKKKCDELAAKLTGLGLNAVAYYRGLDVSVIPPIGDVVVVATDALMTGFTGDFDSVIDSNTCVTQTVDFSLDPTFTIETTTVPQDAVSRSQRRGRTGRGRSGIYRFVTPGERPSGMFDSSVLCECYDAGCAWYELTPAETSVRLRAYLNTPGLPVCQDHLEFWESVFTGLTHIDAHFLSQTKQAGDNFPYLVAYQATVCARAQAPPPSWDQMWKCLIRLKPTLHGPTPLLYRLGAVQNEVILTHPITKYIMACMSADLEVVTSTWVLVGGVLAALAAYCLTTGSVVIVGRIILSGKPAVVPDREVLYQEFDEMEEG
T3 sequence (P27958 1027-1657 C1454S): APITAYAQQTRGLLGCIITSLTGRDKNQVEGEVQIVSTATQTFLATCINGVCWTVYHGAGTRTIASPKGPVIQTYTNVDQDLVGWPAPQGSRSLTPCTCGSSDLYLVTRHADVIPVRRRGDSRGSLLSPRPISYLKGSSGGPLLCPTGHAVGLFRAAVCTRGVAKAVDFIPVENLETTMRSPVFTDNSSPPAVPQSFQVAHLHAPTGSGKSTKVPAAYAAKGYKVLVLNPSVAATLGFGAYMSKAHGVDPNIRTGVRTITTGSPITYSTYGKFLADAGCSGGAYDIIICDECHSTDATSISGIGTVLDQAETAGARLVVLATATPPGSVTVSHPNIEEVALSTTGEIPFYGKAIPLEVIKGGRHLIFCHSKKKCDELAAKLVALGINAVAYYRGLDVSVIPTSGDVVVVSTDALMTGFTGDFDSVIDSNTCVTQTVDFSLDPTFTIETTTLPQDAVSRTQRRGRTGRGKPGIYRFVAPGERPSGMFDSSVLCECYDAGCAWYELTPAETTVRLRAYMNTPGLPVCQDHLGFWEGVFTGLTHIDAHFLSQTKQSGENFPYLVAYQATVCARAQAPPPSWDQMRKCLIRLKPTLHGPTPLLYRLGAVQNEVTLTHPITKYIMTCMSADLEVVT
T3 sequence (P27958 1658-1714 partner, looked up, stated change not applied): as the sequence (P27958 1658-1714, looked up, stated change not applied) above

For the molecule `C=CC1C[C@]1(NC(=O)[C@@H]1C[C@@H](Oc2cc(-c3ccccc3)nc3cc(OC)ccc23)CN1C(=O)[C@@H](NC(=O)OC(C)(C)C)C(C)(C)C)C(=O)NS(=O)(=O)C1(C)CC1` (stereo in doubt) [Compound 1, (1-{4-(7-Methoxy-2-phenylquinolin-4-yloxy)-2-[1-(1-methylcyclopropanesulfonylaminocarbonyl)-2-vinylcyclopropylcarbamoyl]pyrrolidine-1-carbonyl}-2,2-dimethylpropyl)carbamic acid tert-butyl ester], the half-inhibitory concentration (IC50) in test [1] (IC50 against the NS3/4A BMS strain in the enzyme assay, BMS strain) is 1.8 nM; in test [1] (IC50 range, NS3/4A BMS Strain) it was under 50 nM; in test [2], 1.1 nM; in test [3] it was 1.2 nM; in test [4] it was over 100000 nM.

Broadly, the IC50 is the concentration at which inhibition is half-maximal.
